Experimental data published in US5162354A, “3-halo-5-halomethyl-2-oxazolidinones and their use as microbicides” (Buckman Laboratories International, Inc., priority 1991, dated 1992).
Converted amounts (≈) assume the structure as drawn. Like-named read-outs stand apart in the source and are kept apart here.

Experiments:
[1] = system: Escherichia coli; assay: AOAC Germicidal and Detergent Sanitizing Action of Disinfectants (Escherichia coli); assay type: cell-based
Method: This test is conducted according to AOAC methods described in AOAC Official Methods of Analysis (1984) p 70. This test is suitable for chemicals that can be permitted for use in sanitizing precleaned non-porous food contact surfaces. This test also determines the effectiveness of compounds tested in hard water. Most of the detergents/sanitizers available in the market become ineffective in the presence of hard water, i.e. water containing calcium and/or magnesium ions. A water hardness value of 400 ppm was chosen because it is considered to be the highest hardness value for tap water in the United States.

[2] = system: mixture of Staphylococcus aureus, Enterobacter aerogenes and Pseudomonas aeruginosa; assay: Long-term effectiveness in water as disinfectant, basal salts method, mixture of test organisms; assay type: cell-based; details: for activity maintained (percent kill): up to three days post-preparation in water, short contact (up to 10 min)
Method: In order to test the effectiveness of the compounds of the present invention over a period of 15 days, the following experiment was conducted using Compound 1.
The basal salts method described in U.S. Pat. No. 2,881,070 at column 5, beginning at line 12 and extending to column 6, line 53 was performed at two different pH values and percent kills were obtained with a mixture of test organisms (Staphylococcus aureus, Enterobacter aerogenes and Pseudomonas aeruginosa). […] At 80 ppm, prolonged sanitizing ability is maintained (99% or greater) with prolonged exposure times (24 hours contact through 15 […] post-preparation in water).
^a Control indicates the population of the test organism and is used
to make sure there is vigorous growth and to calculate % kills.

In the case of `O=C1OC(CCl)CN1Br` (stereo not shown) [Compound 1, 3-Bromo-5-chloromethyl-2-oxazolidinone], the “Minimum inhibitory concentration required to inhibit microorganisms” value ([1]; Hard Water (400 ppm calcium carbonate)) is reported as 80 parts per million (w/v), the MIC ([1]; Soft Water, read-out: Minimum inhibitory concentration required to inhibit microorganisms) is reported as 80 µg/mL (≈ 373 µM) and the killing at 40 ppm ([2]; 10 min, pH 6, Day 1 after preparation in soft water, pH 6.0, 10 min contact, read-out: % Reduction (Kill)) is reported as 100%. It also gave a killing at 80 ppm ([2]; 10 min, pH 6, Day 1 after preparation in soft water, 80 ppm, pH 6.0, 10 min contact, read-out: % Reduction (Kill)) of 100%, a killing at 40 ppm ([2]; 10 min, pH 6, Day 2 after preparation in soft water, pH 6.0, 10 min contact, read-out: % Reduction (Kill)) of 100% and a killing at 80 ppm ([2]; 10 min, pH 6, Day 2 after preparation in soft water, 80 ppm, pH 6.0, 10 min contact, read-out: % Reduction (Kill)) of 100%. The killing at 40 ppm ([2]; 10 min, pH 6, Day 3 after preparation in soft water, pH 6.0, 10 min contact, read-out: % Reduction (Kill)) was 100%, the killing at 80 ppm ([2]; 10 min, pH 6, Day 3 after preparation in soft water, 80 ppm, pH 6.0, 10 min contact, read-out: % Reduction (Kill)) was 100% and the killing at 40 ppm ([2]; 10 min, pH 6, Day 4 after preparation in soft water, pH 6.0, 10 min contact, read-out: % Reduction (Kill)) was 38.8%. The killing at 80 ppm ([2]; 10 min, pH 6, Day 4 after preparation in soft water, 80 ppm, pH 6.0, 10 min contact, read-out: % Reduction (Kill)) was 54.3%, the killing at 40 ppm ([2]; 10 min, pH 6, Day 5 after preparation in soft water, pH 6.0, 10 min contact, read-out: % Reduction (Kill)) was 26.8% and the killing at 80 ppm ([2]; 10 min, pH 6, Day 5 after preparation in soft water, 80 ppm, pH 6.0, 10 min contact, read-out: % Reduction (Kill)) was 41.4%. The killing at 40 ppm ([2]; 10 min, pH 6, Day 14 after preparation in soft water, pH 6.0, 10 min contact, read-out: % Reduction (Kill)) was 40%, the killing at 80 ppm ([2]; 10 min, pH 6, Day 14 after preparation in soft water, 80 ppm, pH 6.0, 10 min contact, read-out: % Reduction (Kill)) was 28.7% and the killing at 40 ppm ([2]; 10 min, pH 6, Day 15 after preparation in soft water, pH 6.0, 10 min contact, read-out: % Reduction (Kill)) was 39.3%. The killing at 80 ppm ([2]; 10 min, pH 6, Day 15 after preparation in soft water, 80 ppm, pH 6.0, 10 min contact, read-out: % Reduction (Kill)) was 13.1%, the killing at 40 ppm ([2]; 10 min, pH 8, Day 1 after preparation in soft water, pH 8.0, 10 min contact, read-out: % Reduction (Kill)) was 100% and the killing at 80 ppm ([2]; 10 min, pH 8, Day 1 after preparation in soft water, 80 ppm, pH 8.0, 10 min contact, read-out: % Reduction (Kill)) was 100%. It also gave a killing at 40 ppm ([2]; 10 min, pH 8, Day 2 after preparation in soft water, pH 8.0, 10 min contact, read-out: % Reduction (Kill)) of 100%, a killing at 80 ppm ([2]; 10 min, pH 8, Day 2 after preparation in soft water, 80 ppm, pH 8.0, 10 min contact, read-out: % Reduction (Kill)) of 100% and a killing at 40 ppm ([2]; 10 min, pH 8, Day 3 after preparation in soft water, pH 8.0, 10 min contact, read-out: % Reduction (Kill)) of 100%. The killing at 80 ppm ([2]; 10 min, pH 8, Day 3 after preparation in soft water, 80 ppm, pH 8.0, 10 min contact, read-out: % Reduction (Kill)) was 100%, the killing at 40 ppm ([2]; 10 min, pH 8, Day 4 after preparation in soft water, pH 8.0, 10 min contact, read-out: % Reduction (Kill)) was 34.2% and the killing at 80 ppm ([2]; 10 min, pH 8, Day 4 after preparation in soft water, 80 ppm, pH 8.0, 10 min contact, read-out: % Reduction (Kill)) was 46%. It also gave a killing at 40 ppm ([2]; 10 min, pH 8, Day 5 after preparation in soft water, pH 8.0, 10 min contact, read-out: % Reduction (Kill)) of 51.8%, a killing at 80 ppm ([2]; 10 min, pH 8, Day 5 after preparation in soft water, 80 ppm, pH 8.0, 10 min contact, read-out: % Reduction (Kill)) of 51.8% and a killing at 40 ppm ([2]; 10 min, pH 8, Day 14 after preparation in soft water, pH 8.0, 10 min contact, read-out: % Reduction (Kill)) of 69.5%. The killing at 80 ppm ([2]; 10 min, pH 8, Day 14 after preparation in soft water, 80 ppm, pH 8.0, 10 min contact, read-out: % Reduction (Kill)) was 83.8%, the killing at 40 ppm ([2]; 10 min, pH 8, Day 15 after preparation in soft water, pH 8.0, 10 min contact, read-out: % Reduction (Kill)) was 68.6% and the killing at 80 ppm ([2]; 10 min, pH 8, Day 15 after preparation in soft water, 80 ppm, pH 8.0, 10 min contact, read-out: % Reduction (Kill)) was 70.2%. For the same compound, the killing at 40 ppm ([2]; 24 h, pH 6, Day 1 after preparation in soft water, pH 6.0, 24 hours contact, read-out: % Reduction (Kill)) was 100%, the killing at 80 ppm ([2]; 24 h, pH 6, Day 1 after preparation in soft water, 80 ppm, pH 6.0, 24 hours contact, read-out: % Reduction (Kill)) was 100% and the killing at 40 ppm ([2]; 24 h, pH 6, Day 2 after preparation in soft water, pH 6.0, 24 hours contact, read-out: % Reduction (Kill)) was 100%. The killing at 80 ppm ([2]; 24 h, pH 6, Day 2 after preparation in soft water, 80 ppm, pH 6.0, 24 hours contact, read-out: % Reduction (Kill)) was 100%, the killing at 40 ppm ([2]; 24 h, pH 6, Day 3 after preparation in soft water, pH 6.0, 24 hours contact, read-out: % Reduction (Kill)) was 100% and the killing at 80 ppm ([2]; 24 h, pH 6, Day 3 after preparation in soft water, 80 ppm, pH 6.0, 24 hours contact, read-out: % Reduction (Kill)) was 100%. It also gave a killing at 40 ppm ([2]; 24 h, pH 6, Day 4 after preparation in soft water, pH 6.0, 24 hours contact, read-out: % Reduction (Kill)) of 99.6%, a killing at 80 ppm ([2]; 24 h, pH 6, Day 4 after preparation in soft water, 80 ppm, pH 6.0, 24 hours contact, read-out: % Reduction (Kill)) of 99.9% and a killing at 40 ppm ([2]; 24 h, pH 6, Day 5 after preparation in soft water, pH 6.0, 24 hours contact, read-out: % Reduction (Kill)) of 91.8%. The killing at 80 ppm ([2]; 24 h, pH 6, Day 5 after preparation in soft water, 80 ppm, pH 6.0, 24 hours contact, read-out: % Reduction (Kill)) was 99.6%, the killing at 40 ppm ([2]; 24 h, pH 6, Day 14 after preparation in soft water, pH 6.0, 24 hours contact, read-out: % Reduction (Kill)) was 99.8% and the killing at 80 ppm ([2]; 24 h, pH 6, Day 14 after preparation in soft water, 80 ppm, pH 6.0, 24 hours contact, read-out: % Reduction (Kill)) was 100%. The killing at 40 ppm ([2]; 24 h, pH 6, Day 15 after preparation in soft water, pH 6.0, 24 hours contact, read-out: % Reduction (Kill)) was 96%, the killing at 80 ppm ([2]; 24 h, pH 6, Day 15 after preparation in soft water, 80 ppm, pH 6.0, 24 hours contact, read-out: % Reduction (Kill)) was 100% and the killing at 40 ppm ([2]; 24 h, pH 8, Day 1 after preparation in soft water, pH 8.0, 24 hours contact, read-out: % Reduction (Kill)) was 100%. It also gave a killing at 80 ppm ([2]; 24 h, pH 8, Day 1 after preparation in soft water, 80 ppm, pH 8.0, 24 hours contact, read-out: % Reduction (Kill)) of 100%, a killing at 40 ppm ([2]; 24 h, pH 8, Day 2 after preparation in soft water, pH 8.0, 24 hours contact, read-out: % Reduction (Kill)) of 100% and a killing at 80 ppm ([2]; 24 h, pH 8, Day 2 after preparation in soft water, 80 ppm, pH 8.0, 24 hours contact, read-out: % Reduction (Kill)) of 100%. It also gave a killing at 40 ppm ([2]; 24 h, pH 8, Day 3 after preparation in soft water, pH 8.0, 24 hours contact, read-out: % Reduction (Kill)) of 100%, a killing at 80 ppm ([2]; 24 h, pH 8, Day 3 after preparation in soft water, 80 ppm, pH 8.0, 24 hours contact, read-out: % Reduction (Kill)) of 100% and a killing at 40 ppm ([2]; 24 h, pH 8, Day 4 after preparation in soft water, pH 8.0, 24 hours contact, read-out: % Reduction (Kill)) of 98.7%. It also gave a killing at 80 ppm ([2]; 24 h, pH 8, Day 4 after preparation in soft water, 80 ppm, pH 8.0, 24 hours contact, read-out: % Reduction (Kill)) of 100%, a killing at 40 ppm ([2]; 24 h, pH 8, Day 5 after preparation in soft water, pH 8.0, 24 hours contact, read-out: % Reduction (Kill)) of 99.9% and a killing at 80 ppm ([2]; 24 h, pH 8, Day 5 after preparation in soft water, 80 ppm, pH 8.0, 24 hours contact, read-out: % Reduction (Kill)) of 99.9%. It also gave a killing at 40 ppm ([2]; 24 h, pH 8, Day 14 after preparation in soft water, pH 8.0, 24 hours contact, read-out: % Reduction (Kill)) of 99.5%, a killing at 80 ppm ([2]; 24 h, pH 8, Day 14 after preparation in soft water, 80 ppm, pH 8.0, 24 hours contact, read-out: % Reduction (Kill)) of 99.9% and a killing at 40 ppm ([2]; 24 h, pH 8, Day 15 after preparation in soft water, pH 8.0, 24 hours contact, read-out: % Reduction (Kill)) of 99.3%. For the same compound, the killing at 80 ppm ([2]; 24 h, pH 8, Day 15 after preparation in soft water, 80 ppm, pH 8.0, 24 hours contact, read-out: % Reduction (Kill)) was 100%, the killing at 80 ppm ([2]; 24 h, read-out: prolonged sanitizing ability maintained (percent kill), 80 ppm, 24 hours contact, through 15 days post-preparation in water) was at least 99% and the “activity maintained (percent kill)” value ([2]; pH 6) was at least 99.99%. The “activity maintained (percent kill)” value ([2]; pH 8) was at least 99.96%.
